How the values were obtained:
[1] = Tissue distribution study; type: in vivo, mice; details: mouse, 20 mg/kg
Description: Agilent 1290 UHPLC system and 6420 series Triple‐Quadrupole Tandem Mass Spectrometer (Agilent Corporation) maintained at 35°C with a ZORBAX Eclipse Plus C18 column (1.8 μm, 2.1 × 50 mm). The mobile phase was a gradient elution program consisting of solvent A with solvent B at a flow rate of 0.4 ml/min. Mobile phase A was 0.1% formic acid in water (v/v), and mobile phase B was acetonitrile. The optimal gradient elution program was as follows: 0–0.5 min, linear from 80% to 5% A; 0.5–1.5 min, 5% A; 1.5–1.6 min, linear from 5% to 80% A. The post‐time was 1.3 min for equilibration of the column and the total runtime was 1.8 min. The mass spectrometer was acquired in an ESI‐positive mode with multiple reaction monitoring (MRM). Instrument control and data acquisition were performed on the MassHunter Agilent Software (version B.07.00).
The desolation gas (nitrogen) flow was set to 10 L/h: the capillary voltage: 4000 V; nebulizing gas and drying gas (both nitrogen): 45 psi and 350°C, respectively. The MRM mode with m/z 282.2→76.9 for C1632 and m/z 282.1→194.0 for IS was used for quantitative analysis.
Twenty‐four mice were randomly divided into four groups (six mice for each group, one group for each time point) and received 20 mg/kg […] of C1632 by oral administration. The mice were euthanized by decapitation at 0 (blank group), 0.25, 2 and 6 h after C1632 was given. Tissues were collected and washed with normal saline, then homogenized and subjected to sample preparation. Subsequently, the concentration of C1632 was determined by UHPLC‐MS/MS.

CYP2D1 = target: T1, CYP2D1 (Rattus norvegicus, UniProt P10633); assay: Microsomal incubation (cocktail) assay, rat liver microsomes; type: in vitro ADME; details: 100 μM C1632, probe 10 μM dextromethorphan, 30 min, 37°C
T1 construct: 3.4 mg/ml pooled rat liver microsomes; from tissue; host or cells: pooled rat liver microsomes
T1 sequence (P10633 1-504): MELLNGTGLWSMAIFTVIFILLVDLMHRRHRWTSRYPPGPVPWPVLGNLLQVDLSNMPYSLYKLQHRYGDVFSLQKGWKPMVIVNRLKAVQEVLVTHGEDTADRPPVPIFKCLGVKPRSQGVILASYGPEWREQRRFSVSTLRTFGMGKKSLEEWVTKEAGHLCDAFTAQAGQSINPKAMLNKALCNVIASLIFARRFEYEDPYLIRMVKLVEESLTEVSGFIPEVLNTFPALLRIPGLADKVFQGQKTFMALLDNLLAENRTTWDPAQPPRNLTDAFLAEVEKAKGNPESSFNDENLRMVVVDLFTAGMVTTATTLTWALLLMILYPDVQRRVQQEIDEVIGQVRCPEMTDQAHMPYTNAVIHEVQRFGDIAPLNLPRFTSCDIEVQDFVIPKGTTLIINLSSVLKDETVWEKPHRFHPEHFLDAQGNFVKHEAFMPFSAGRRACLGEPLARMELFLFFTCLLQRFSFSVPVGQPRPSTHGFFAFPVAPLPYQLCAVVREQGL
Description: (§1) The microsomal incubation assay[41] was performed at 37°C in a 200 μl incubation system, which consisted of 3.4 mg/ml pooled rat liver microsomes, 100 μM C1632, and probe substrates (5 μM CYP3A2‐midazolam; 10 μM CYP2D1‐dextromethorphan; 250 μM CYP2C11‐tolbutamide; 10 μM CYP2B1‐bupropion; and 0.1 M Tris–HCl [pH 7.4]). After 5 min of incubation, 1 mM NADPH was added, and the assay was terminated after 30 min by cooling at −80°C. Next, 0.2 ml acetonitrile and 20 μl IS (100 ng/ml) were added to the reactant. Finally, the solution was thoroughly vortexed and centrifuged at 12,000 rpm for 10 min. The supernatant was analysed by UHPLC‐MS/MS.[42]

CYP3A2 = target: T2, CYP3A2 (Rattus norvegicus, UniProt P05183); assay: as above; type: in vitro ADME; details: 100 μM C1632, probe 5 μM midazolam, 30 min, 37°C
T2 construct: 3.4 mg/ml pooled rat liver microsomes; from tissue; host or cells: pooled rat liver microsomes
T2 sequence (P05183 1-504): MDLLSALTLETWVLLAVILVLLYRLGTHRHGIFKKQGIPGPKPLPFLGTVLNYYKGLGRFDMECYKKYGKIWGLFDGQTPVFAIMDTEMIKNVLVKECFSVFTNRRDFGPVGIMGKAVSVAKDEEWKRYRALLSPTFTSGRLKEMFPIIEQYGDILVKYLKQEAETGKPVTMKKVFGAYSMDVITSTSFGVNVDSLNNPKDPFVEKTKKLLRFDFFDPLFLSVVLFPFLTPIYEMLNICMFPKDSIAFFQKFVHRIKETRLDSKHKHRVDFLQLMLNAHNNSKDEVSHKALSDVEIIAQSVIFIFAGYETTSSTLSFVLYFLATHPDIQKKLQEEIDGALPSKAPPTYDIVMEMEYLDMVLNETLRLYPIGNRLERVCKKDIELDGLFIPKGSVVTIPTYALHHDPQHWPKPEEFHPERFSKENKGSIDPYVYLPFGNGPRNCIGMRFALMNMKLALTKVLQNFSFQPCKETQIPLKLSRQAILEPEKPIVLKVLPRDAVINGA
Description: as §1

A549 cells = assay: Transwell migration and invasion assay; type: cell-based, human; details: A549, pretreated 5 days, 24 h
Description: (§2) Transwell assay was carried out according to the manufacturer's instructions provided by Transwell Kit (Corning Costar). Briefly, cells were pretreated with indicated concentrations of C1632 for 5 days, then harvested and re‐seeded into insert (transwell permeable support) containing 100 μl serum‐free DMEM medium. The insert was placed into 24‐well plate containing 600 μl of DMEM medium extra added with 10% FBS. 24 h later, cells on the upper surface of the insert were removed with cotton‐tipped swabs. And cells on backside surface of the insert were fixed with 10% formalin, then stained with crystal violet. The insert was washed three times with ddH2O before it is subjected to Nikon Ti microscope observation. Additionally, these inserts were dissolved in 500 μl acetic acid (33%) separately, and the absorbance at 560 nm was detected by the spectrophotometer (DTX880, Beckman Coulter).

A549R cells = assay: Transwell migration and invasion assay; type: cell-based, human; details: pretreated 5 days, 24 h
Description: as §2

- level of C1632 in the brain [1]: remained low
- tissues with the highest level of C1632 ([1]; 0.25 h, followed by kidney, heart and spleen): highest in the lung and liver
- Tmax ([1]; tissues (major organs), homogenized, oral administration, sampled at 0.25, 2 and 6 h, read-out: time of peak concentration in major organs): 15 min
- effect on CYP2D1 activity (CYP2D1): significantly inhibit
- effect on CYP3A2 activity (CYP3A2): significantly inhibit
Compound: CC(=O)N(C)c1cccc(-c2ccc3nnc(C)n3n2)c1 [C1632]
- Transwell migration compared with untreated cells (A549 cells): decreased migration
- Transwell migration compared with untreated cells (A549R cells): decreased migration
